The test system of data set [1] is β-amyloid (Aβ42) production. The data set can be described thus: β-amyloid (Aβ42) production in APP-transfected HeLa cells, ELISA of culture solution. The data set is classed as cell-based, human. The procedure: (§1) In order to examine the effect of the ethanol extract of Lycoris chejuensis obtained in Example <1-1> to inhibit β-amyloid production, HeLa cell line transfected with human amyloid precursor protein(APP) was cultured in DMEM culture medium (Cat. #11995, Gibco, USA). The cell line was supplied by Prof. Tae-Wan Kim, Department of Pathology, Columbia University Medical Center, New York, N.Y.10032, USA.
(§2) To the cell culture solution, the ethanol extract of Lycoris chejuensis (CJ) obtained in Example <1-1> was added, and then, it was cultured at 37° C. for 8 hours, and the amount of β-amyloid secreted in the culture solution was measured. More specifically, in order to quantify β-amyloid, two kinds of β-amyloid (Aβ40, Aβ42), Human β-Amyloid (Aβ40) and Human β-Amyloid (Aβ42) Colorimetric ELISA kits (#KHB3482 and #KHB3442; BioSource International, Inc., USA) were respectively used. The negative control means the case to which the extract of Lycoris chejuensis was not added.
A general note: ELISA stands for enzyme-linked immunosorbent assay.

In data set [2] the test system is β-amyloid (Aβ40) production. Briefly: β-amyloid (Aβ40) production in APP-transfected HeLa cells, ELISA of culture solution. The data set is classed as cell-based, human. The procedure:
as §1, §2

In data set [3] the test system is viable cells. The data set can be described thus: MTT Cell Proliferation assay, effect on cell death. The data set is classed as cell-based. The procedure: In order to measure the effect of an extraction or a fraction of Lycoris chejuensis on cell death, MTT Cell Proliferation assay (ATCC catalog #30-1010K, Manassas, USA), which is a conventionally known method, was used. In particular, a cell was treated with various concentrations of an ethanol extract (CJ) of Lycoris chejuensis and a butanol fraction (CJ-3) of Lycoris chejuensis for 8 hours, and then, viable cells were quantified.
For orientation: Formazan colour is commonly taken as a measure of viable cells.

For data set [4], the system named is β-amyloid (Aβ42) production. The data set can be described thus: β-amyloid (Aβ42) production in APP-transfected HeLa cells, ELISA of culture solution. The data set is classed as cell-based, human. Particulars: for Inhibition rate (%) of Aβ42 production compared to that of negative control: 8 hours.
The subject of data set [5] is β-amyloid (Aβ40) production. Briefly: β-amyloid (Aβ40) production in APP-transfected HeLa cells, ELISA of culture solution. The data set is classed as cell-based, human. Particulars: for Inhibition rate (%) of Aβ40 production compared to that of negative control: 8 hours.
Data set [6] has as its system β-secretase product (sAPPβ) production. Briefly: β-secretase product (sAPPβ) production in APP-transfected HeLa cells, sAPPβ-Wild Type Assay Kit. The data set is classed as cell-based. The following applies: Homo sapiens, read-out: Inhibition rate (%) of sAPPβ production compared to negative control. The source says: The cause of inhibition of β-amyloid production in the Experimental example <3> was examined in more detail. β-amyloid was produced from amyloid precursor(APP) by continuous actions of membrane protein hydrolytic enzyme, β-secretase (BACE1), and γ-secretase (Vassa and Citron, Neuron 27, 419-422, 2000). More specifically, β-secretase product(sAPPβ) is produced from amyloid precursor (APP) by the action of β-secretase, from which β-amyloid is produced by the action of γ-secretase.
Based on the above, it was identified whether or not dihydrolycoricidine obtained in Example <2-1> is capable of inhibiting the production of β-secretase product(sAPPβ). Specifically, the same procedure as Experimental example <3> was conducted except that sAPPβ-Wild Type Assay Kit (Immuno-Biological Laboratories Co., Ltd., Japan) was used for quantifying sAPPβ. The negative control means the case to which dihydrolycoricidine was not added.

Where [7] appears, read: 10, 5, 1, 0.5, 0.2, 0.1 and 0.05 μg/ml, 8 hours.
Where [8] appears, read: Homo sapiens, HeLa, 8 h, read-out: Inhibition rate (%) of Aβ42 production compared to that of negative control.
Setting [9] is: Homo sapiens, HeLa, 8 h, read-out: Inhibition rate (%) of Aβ40 production compared to that of negative control.

Some results are limits rather than exact numbers.

Consider `COC1C=C2C3CN(Cc4cc5c(cc43)OCO5)C2CC1O` (stereo not shown) [2-methoxypancracine], for which, in data set [1] (setting [7]), the “β-amyloid (Aβ42) production (FIG. 7)” value is “inhibited by 2-methoxypancracine in a concentration dependent manner”. Moreover, in data set [2] (setting [7]), the “β-amyloid (Aβ40) production (FIG. 7)” value is “inhibited by 2-methoxypancracine in a concentration dependent manner”. In data set [3] (5 μg/ml (FIG. 11)), this compound registered a cells died of no more than 10%.

The inhibition is the percentage by which the read-out fell short of the control. For `O=C1NC2C(CC(O)C(O)C2O)c2cc3c(cc21)OCO3` (stereo not shown) [dihydrolycoricidine], the inhibition at 5 µM is 58.8% in data set [4] (Homo sapiens, HeLa, 5 μM, read-out: Inhibition rate (%) of Aβ42 production compared to that of negative control); 28.4% in data set [5] (Homo sapiens, HeLa, 5 μM, read-out: Inhibition rate (%) of Aβ40 production compared to that of negative control); 6% in data set [6] (5 μM). Also, the inhibition at 10 µM came out at 63.8% in data set [4] (Homo sapiens, HeLa, 10 μM, read-out: Inhibition rate (%) of Aβ42 production compared to that of negative control); 56.1% in data set [5] (Homo sapiens, HeLa, 10 μM, read-out: Inhibition rate (%) of Aβ40 production compared to that of negative control); 12% in data set [6] (10 μM). Also, the inhibition at 25 µM was found to be 88.8% in data set [4] (Homo sapiens, HeLa, 25 μM, read-out: Inhibition rate (%) of Aβ42 production compared to that of negative control); 59.8% in data set [5] (Homo sapiens, HeLa, 25 μM, read-out: Inhibition rate (%) of Aβ40 production compared to that of negative control); 28.9% in data set [6] (25 μM). Moreover, the inhibition at 50 µM in data set [4] (Homo sapiens, HeLa, 50 μM, read-out: Inhibition rate (%) of Aβ42 production compared to that of negative control) was determined as 92.2%; in data set [5] (Homo sapiens, HeLa, 50 μM, read-out: Inhibition rate (%) of Aβ40 production compared to that of negative control), 63%; in data set [6] (50 μM) it was 36.1%. In data set [3] (50 μM), the cells died is no more than 30%. The “Cell death (%) compared to negative control” value (shortened to “Cell death (%)”) in data set [3] (dihydrolycoricidine 5 μM) was 18.3%; in data set [3] (dihydrolycoricidine 10 μM), 23.3%; in data set [3] (dihydrolycoricidine 25 μM) it was 25.3%; in data set [3] (dihydrolycoricidine 50 μM), 28.1%.

Consider `O=C1NC2C(=CC(O)C(O)C2O)c2cc3c(cc21)OCO3` (stereo not shown) [lycoricidine], for which the results for the inhibition at 0.01 µg/mL in data set [1] (setting [8]) and in data set [2] (setting [9]) were 16% and 3.3%, respectively. In addition, the inhibition at 0.1 µg/mL in data set [1] (setting [8]) was 81.3%; in data set [2] (setting [9]) it was 67%. Moreover, the inhibition at 1 µg/mL came out at 97.5% in data set [1] (setting [8]) and 92.8% in data set [2] (setting [9]). Besides, the values for the inhibition at 10 µg/mL in data set [1] (setting [8]) and in data set [2] (setting [9]) were 100% and 97.2%, respectively. For the same compound, in data set [3] (10 μM (lycoricidine)), the cells died is given as no more than 20%. The “Cell death (%)” value in data set [3] (8 h, 0.01 μg/ml) is 4.9%; in data set [3] (8 h, 0.1 μg/ml), 11.3%; in data set [3] (8 h, 1 μg/ml), 19.0%; in data set [3] (8 h, 10 μg/ml) it was 21.1%.

Consider `O=C1NC2C(=CC(O)C(O)C2O)c2cc3c(c(O)c21)OCO3` (stereo not shown) [lycoricidinol], for which the “Inhibition rate (%) of Aβ42 production compared to that of negative control” value in data set [4] (lycoricidinol 0.01 μg/ml) is 44.0%; in data set [4] (lycoricidinol 0.1 μg/ml) it was 97.0%; in data set [4] (lycoricidinol 1 μg/ml) it was 100%; in data set [4] (lycoricidinol 10 μg/ml) it was 100%. In addition, the “Inhibition rate (%) of Aβ40 production compared to that of negative control” value is 25.0% in data set [5] (lycoricidinol 0.01 μg/ml), 90.4% in data set [5] (lycoricidinol 0.1 μg/ml), 97.8% in data set [5] (lycoricidinol 1 μg/ml) and 98.4% in data set [5] (lycoricidinol 10 μg/ml). The same compound showed a cells died in data set [3] (10 μM (lycoricidinol)) of no more than 20%. For the same compound, the “Cell death (%)” value in data set [3] (lycoricidinol 0.01 μg/ml) came to 10.3%; in data set [3] (lycoricidinol 0.1 μg/ml), 11.6%; in data set [3] (lycoricidinol 1 μg/ml), 16.5%; in data set [3] (lycoricidinol 10 μg/ml), 19.3%.
